Measurements as given in article PMC4833932, “Cytotoxicity and cell cycle arrest induced by andrographolide lead to programmed cell death of MDA-MB-231 breast cancer cell line” (Journal of Biomedical Science, 2016).
Read-outs that look alike come from different tables or passages of the source.

What was measured:
[1] = test system: platelets; set-up: method as in PMID 21822619; dose or concentration left out as unconfirmed; conditions: cited from earlier work
[2] = test system: cytochrome c; experiment: Western blot of cytosolic and mitochondrial fractions of MDA-MB-231 cells; type: cell-based, human; conditions: 30 μM, 48 h
Description: Cells were treated with andrographolide (30 μM) for 48 h and mitochondrial as well as cytosolic fractions were obtained with a mitochondria isolation kit (Pierce, Rockford, USA). The mitochondrial pellet was re-suspended in sample buffer for SDS-gel electrophoresis and analyzed by Western blot using cytochrome c antibody. COX IV and β-actin were used as loading controls for the mitochondrial fraction and cytosolic fraction respectively. Cytosolic fractions were also Western blotted for studying cytochrome c expression.
Cells from control regime and andrographolide treatment (30 μM, 48 h) were used for Western blot. After centrifugation, cell pellets were lysed in RIPA buffer containing protease and phosphatase inhibitors (Roche, Germany). Each cell lysate was used for protein assay with Bio-Rad protein assay kit (Bio-Rad, USA). A protein sample of 50 μg was electrophoresed in a 12 % SDS-PAGE. Proteins were electro-transferred from the gel onto a nitrocellulose membrane (Amersham Biosciences, UK). […] The protein bands were visualized by incubating the membrane with diaminobenzidine/hydrogen peroxide (Sigma-Aldrich) for color reaction. β-Actin and COX IV were also detected as loading controls.

[3] = test system: T-47D; experiment: In vitro cytotoxicity (MTT) assay; type: cell-based; conditions: Homo sapiens, T47D
Description: (§1) The effect of andrographolide on cell viability was measured by MTT assay following the method by Mosmann. Briefly, the cells (1 × 10^5 cells per ml) were seeded in a 96 well micro titer plate (100 μl per well) with replications. Treatment was conducted for 24 and 48 h with different concentrations (0, 5, 7.5, 15, 30, 45, 60, 75 and 100 μM) of andrographolide. After incubation, 20 μl of 5 mg/ml MTT stock solution was added to each well and incubated for 4 h at 37 °C. The obtained formazan crystals were solubilized with DMSO and the absorbance was measured at 570 nm using a microplate reader (SpectraMax M5, Molecular Devices, USA). Cell viability (%) has been shown as a ratio of absorbance (A570) in treated cells to absorbance in control cells (0.1 % DMSO) (A570). The IC50 was calculated as the concentration of sample needed to reduce 50 % of the absorbance in comparison to the DMSO-treated control. Percent cell viability was calculated following the equation: Cellviability%=A570Sample/A570ControlDMSO×100

[4] = test system: MCF-10A normal human breast epithelial immortalized cell line; experiment: In vitro cytotoxicity (MTT) assay; type: cell-based; conditions: for IC50: Homo sapiens, MCF-10A, MTT
Description: as §1

[5] = test system: MCF-7; experiment: In vitro cytotoxicity (MTT) assay; type: cell-based; conditions: Homo sapiens
Description: as §1

[6] = In vivo pharmacokinetic study, plasma LC-MS/MS; set-up: species or system Female BALB/c mice; conditions: for Plasma exposure at 24 h: LLOQ 2.44 ng/ml; for bioavailability: PO 50 mg/kg vs IV 5 mg/kg; for half-life: read-out: Terminal T½ (converted); for AUC(0-t): read-out: AUC(0-8)
Description: Female BALB/c mice, being divided into two groups (n = 6 per group), received andrographolide via oral route (PO) as well as intravenous (IV) bolus dosing at 50 mg/kg (equivalent to 142.73 μmol/kg and dose volume, 10 ml/kg) and 5 mg/kg body weight (equivalent to 14.27 μmol/kg and dose volume, 5 ml/kg) respectively. The formulation was prepared in 10 % DMSO, 10 % Cremophor and 80 % 1/15 (M) Na2HPO4 with dose volume of 10 ml/kg and 5 ml/kg for oral and IV respectively. ~50 μl of blood samples were collected at each time points (0.25, 0.5, 1, 2, 4, 8 and 24 h for PO and 0.08, 0.25, 0.5, 1, 2, 4, 8 and 24 h for IV) into heparinized capillary tubes by piercing the saphenous vein using a disposable needle (26 G). Blood samples were centrifuged at 3000 rpm for 10 min at 4 °C. The resulting plasma samples were stored at –80 °C until bioanalysis.
Analysis of plasma samples were performed using a liquid chromatography tandem mass spectroscopy (API-4000, AB Sciex Instruments, Foster City, CA) attached with the ESI source. The LC system consisted of LC-20ADvp pump (Shimadzu, Kyoto, Japan) and CTC PAL (HTS) autosampler. Liquid chromatography was performed using a Luna C18 column (2 × 30 mm, 5 μ particle) of Phenomenex (Torrance, CA) and the mobile phase consisted of 2 mM ammonium acetate in water (A) and 80: 20 (v/v) MeCN: Solvent A (B). The gradient elution program was as follows: first 60 s only A for washing, then 60 s for gradient up to 100 % B and it was continued for next 60 s. Total run time was 3.5 min with a flow of 0.8 ml/min at room temperature. Samples were detected and quantified using Analyst 1.4.2. Internal standard used was diclofenac.
The concentrations of test samples were determined from the standard curve prepared by spiking 2 μl of working stock in 98 μl of blank plasma along with the quality control samples (low, mid and high). The linear equation of the standard curve was obtained by regressional analysis of the peak area ratio of analyte to internal standard versus nominal concentration with a weighting factor of 1/X2. The calibration curve was linear in the concentration range 2.44 (LLOQ) to 1250 ng/ml.

[7] = test system: Bcl-xL; experiment: Western blot, protein expression in MDA-MB-231 cells; type: cell-based, human; conditions: 30 μM, 48 h
Description: (§2) Cells from control regime and andrographolide treatment (30 μM, 48 h) were used for Western blot. After centrifugation, cell pellets were lysed in RIPA buffer containing protease and phosphatase inhibitors (Roche, Germany). Each cell lysate was used for protein assay with Bio-Rad protein assay kit (Bio-Rad, USA). A protein sample of 50 μg was electrophoresed in a 12 % SDS-PAGE. Proteins were electro-transferred from the gel onto a nitrocellulose membrane (Amersham Biosciences, UK). After incubating with blocking buffer containing 5 % nonfat milk for 1 h, the membranes were probed with the primary antibody specific for Bcl-xL (1:750 dilution), Bcl-2 (1:1000), Bax (1:1000), cytochrome c (1:800) and Apaf-1 (1:500) at 4 °C. Membrane was then washed thrice with TBST (Tris buffered saline having 0.1 % Tween-20, pH 7.5), exposed to horseradish peroxidase conjugated secondary antibody (1:2500) and was then kept at 25 °C for 1 h. The membrane was then finally washed thrice with TBST. The protein bands were visualized by incubating the membrane with diaminobenzidine/hydrogen peroxide (Sigma-Aldrich) for color reaction. β-Actin and COX IV were also detected as loading controls.

[8] = test system: Bcl-2; experiment: as above; type: cell-based, human; conditions: 30 μM, 48 h
Description: as §2

[9] = test system: Apaf-1; experiment: as above; type: cell-based, human; conditions: 30 μM, 48 h
Description: as §2

[10] = test system: Bax; experiment: as above; type: cell-based, human; conditions: 30 μM, 48 h
Description: as §2

[11] = test system: male mice; set-up: method as in PMID 2228074; conditions: intraperitoneal route; cited from earlier work
[12] = female, BALB/c, mouse, plasma, iv, 5 mg/kg, IV at 5 mg/kg, female BALB/c mice
[13] = female, BALB/c, mouse, plasma, po, 50 mg/kg, PO at 50 mg/kg, female BALB/c mice
[14] = mouse, plasma, IV at 5 mg/kg, female BALB/c mice
[15] = mouse, plasma, PO at 50 mg/kg, female BALB/c mice

C=C1CC[C@@H]2[C@](C)(CO)[C@H](O)CC[C@@]2(C)[C@@H]1C/C=C1/C(=O)OC[C@H]1O [andrographolide]
cytotoxic effect on platelets [1]: no cytotoxic effect
cytosolic cytochrome c expression, increase ([2]; cytosolic fraction): 7.13 ± 1.17 fold
cytochrome c in the mitochondrial fraction, decrease ([2]; mitochondrial fraction): 1.92 ± 0.05 fold
IC50 ([3]; 24 h): 118 µM
IC50 ([3]; 48 h): 72.6 µM
IC50 at 48 h for MCF-10A higher than that for MDA-MB-231 cells ([4]; 48 h, MCF-10A vs MDA-MB-231): ~3.5 fold
IC50 ([4]; 24 h): 138 µM
IC50 ([4]; 48 h): 106 µM
treatment did not affect normal breast epithelial cells, MCF-10A ([4]; abstract, quantity not named (presumably viability)): > 80%
IC50 ([5]; MCF7, MCF-7, 24 h): 61.1 µM
IC50 ([5]; MCF7, MCF-7, 48 h): 36.9 µM
Plasma exposure at 24 h ([6]; IV arm, 5 mg/kg): below lower limit of quantitation
bioavailability ([6]; female BALB/c mice): 9.27 ± 1.69%
Plasma exposure at 24 h ([6]; PO arm, 50 mg/kg): below lower limit of quantitation
CL ([6]; PO at 50 mg/kg, female BALB/c mice): 1045 ± 201.7 mL/min/kg
AUC(0-inf) [6, 12]: 2.51 ± 0.56 µM·h
clearance [6, 12]: 91.8 mL/min/kg
half-life [6, 12]: 1.86 ± 0.21 h
bioavailability ([6]; female, BALB/c, mouse, plasma, oral, 50 mg/kg, female BALB/c mice, read-out: Bioavailability): < 10%
AUC(0-inf) [6, 13]: 2.33 ± 0.42 µM·h
half-life [6, 13]: 3.3 ± 0.35 h
C0 [6, 14]: 14.6 ± 4.04 µM
AUC(0-t) [6, 14]: 1.96 ± 0.38 µM·h
Cmax [6, 15]: 0.73 ± 0.17 µM
Tmax [6, 15]: 0.42 ± 0.14 h
AUC(0-t) [6, 15]: 1.92 ± 0.36 µM·h
Bcl-xL expression, down-regulated compared to control [7]: 1.47 ± 0.06 fold
Bcl-2 expression, down regulated [8]: 1.96 ± 0.14 fold
Apaf-1 expression, increase [9]: 1.49 ± 0.17 fold
Bax expression, up-regulated [10]: 2.39 ± 0.45 fold
LD50 [11]: 11460 mg/kg
